Assay results reported in publication PMC9698483, “Berbamine Reduces Chloroquine-Induced Itch in Mice through Inhibition of MrgprX1” (International Journal of Molecular Sciences, 2022).

What was measured:
Type in all cases: cell-based
[1] = target: T1, MrgprX1 (Homo sapiens, UniProt Q96LB2); experiment: Intracellular calcium measurement (Fluo-4 NW) in HEK293T cells expressing MrgprX1
T1 construct: expressed in transfected cells
Protocol: To identify novel antagonists of MrgprX1, a cell-based screening assay was established. […] Cells were treated with the indicated concentrations of CQ where the arrow indicates. (B) Summary of dose-response (mean ± S.E., n = 6). (C) Representative Fluo−4 fluorescence traces of MrgprX1 antagonist screening. Cells were treated with 30 μM of the test compounds for 10 min prior to treatment with 300 μM CQ.
Figure 2 Effect of berbamine and closantel on CQ- and ionomycin-induced increases in intracellular calcium levels: (A,B) Intracellular calcium levels were measured using Fluo−4 NW in HEK293T cells expressing MrgprX1. The cells were pretreated with the indicated concentrations of berbamine (BBM) and closantel (CLS) for 10 min prior to treatment with 300 μM CQ. (C) Summary of dose-response (mean ± S.E., n = 6). […] The cells were pretreated with the indicated concentrations of BBM and CLS for 10 min before treatment with ionomycin. (F) Summary of dose–response (mean ± S.E., n = 6).
Intracellular calcium levels were measured using a Fluo-4 NW calcium assay kit (Invitrogen, Carlsbad, CA) as per the manufacturer’s protocol in HEK293T and HT29 cells. Briefly, the cells were plated in a 96-well black-walled plate and incubated with 100 μL of assay buffer including Fluo-4 NW. […] Intracellular calcium increase was induced with the application of the indicated agonist. All modulators were dissolved in DMSO, and cells were treated with a final concentration of 1% DMSO.

[2] = target: T2, MrgprA3 (Mus musculus, UniProt Q91WW3); experiment: Intracellular calcium measurement in HEK293T cells expressing mouse MrgprA3; settings: pretreated 10 min prior to 300 μM CQ; read-out: IC50 of inhibition of CQ-induced MrgprA3 activation
T2 construct: expressed in transfected cells; host or cells: HEK293T
T2 sequence (Q91WW3 1-302): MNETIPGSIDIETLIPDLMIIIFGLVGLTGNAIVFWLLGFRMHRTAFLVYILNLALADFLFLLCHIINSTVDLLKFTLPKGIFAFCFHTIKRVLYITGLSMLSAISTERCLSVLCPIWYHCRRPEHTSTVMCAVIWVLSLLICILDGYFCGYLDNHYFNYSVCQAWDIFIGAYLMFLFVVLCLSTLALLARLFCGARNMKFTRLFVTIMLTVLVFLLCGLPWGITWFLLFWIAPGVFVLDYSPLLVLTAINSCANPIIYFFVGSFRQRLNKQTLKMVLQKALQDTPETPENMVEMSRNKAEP
Protocol: MRGPRA3 and MRGPRC11 are mouse orthologs of human MRGPRX1, and MrgprA3 is also activated by CQ, resulting in CQ-induced pruritus. To investigate the inhibitory effect of berbamine on MrgprA3, we established HEK293T cells overexpressing MrgprA3. […] We further investigated whether berbamine inhibited CQ-induced ERK1/2 phosphorylation in HEK-MrgprA3 cells. Strong and significant ERK1/2 phosphorylation was observed following CQ application, and ERK1/2 phosphorylation peaked 5 min after CQ treatment (Figure 6A,B).
Figure 5 Effect of berbamine on CQ-induced activation of MrgprA3: (A) Intracellular calcium levels were measured in HEK293T cells expressing mouse MrgprA3. Cells were treated with indicated concentrations of CQ. (B) Summary of dose–response (mean ± S.E., n = 6). (C) Cells were pretreated with indicated concentrations of berbamine for 10 min prior to 300 μM CQ treatment. (D) Summary of dose-response (mean ± S.E., n = 6). (E) Representative traces of intracellular calcium responses to BAM8−22 in HEK293T cells expressing MrgprC11. […]
Intracellular calcium levels were measured using a Fluo-4 NW calcium assay kit (Invitrogen, Carlsbad, CA) as per the manufacturer’s protocol in HEK293T and HT29 cells. […] After 1 h of incubation, Fluo-4 fluorescence was recorded with a FLUOstar Omega microplate reader equipped with syringe pumps and custom Fluo-4 excitation/emission filters (485/538 nm). […]

[3] = target: T3, MrgprX4 (Homo sapiens, UniProt Q96LA9); experiment: DCA-induced activation of MrgprX4 in MrgprX4-expressing HEK293T cells (calcium); settings: 30 μM, 10 min prior to 80 μM DCA
T3 construct: expressed in transfected cells; host or cells: HEK293T
Protocol: To investigate the effect of berbamine on other pruritogenic GPCRs, we observed the effect of berbamine on histamine H1 receptor (H1R), histamine H4 receptor (H4R), MrgprC11, MrgprX4, PAR2, and TGR5.
Figure 3 Effects of berbamine on the activity of other pruritogenic GPCRs: (A,B) Effect of berbamine on histamine 1 receptor (H1R) and histamine 4 receptor (H4R). H1R- and H4R-expressing HEK293T cells were pretreated with 30 μM BBM for 10 min prior to 100 μM histamine treatment. […] (C) Effect of berbamine on PAR2. HT29 cells were pretreated with BBM for 10 min prior to 30 μM PAR2-AP treatment. […] (D) Effect of berbamine on MrgprC11. MrgprC11-expressing HEK293T cells were pretreated with BBM for 10 min prior to 100 μM […] treatment. (E) Effect of berbamine on MrgprX4. MrgprX4-expressing HEK293T cells were pretreated with BBM for 10 min prior to 80 μM DCA treatment. (F) Effect of berbamine on TGR5. TGR5 activity was measured using a YFP fluorescence quenching assay. CHO-K1 cells coexpressing TGR5 and a halide sensor YFP were pretreated with BBM and 80 μM DCA for 10 min prior to I^- treatment. Results were summarized as means ± S.E. (n = 6). NTC, nontransfected cells.
Intracellular calcium levels were measured using a Fluo-4 NW calcium assay kit (Invitrogen, Carlsbad, CA) as per the manufacturer’s protocol in HEK293T and HT29 cells. […]

T1 sequence (Q96LB2 whole entry): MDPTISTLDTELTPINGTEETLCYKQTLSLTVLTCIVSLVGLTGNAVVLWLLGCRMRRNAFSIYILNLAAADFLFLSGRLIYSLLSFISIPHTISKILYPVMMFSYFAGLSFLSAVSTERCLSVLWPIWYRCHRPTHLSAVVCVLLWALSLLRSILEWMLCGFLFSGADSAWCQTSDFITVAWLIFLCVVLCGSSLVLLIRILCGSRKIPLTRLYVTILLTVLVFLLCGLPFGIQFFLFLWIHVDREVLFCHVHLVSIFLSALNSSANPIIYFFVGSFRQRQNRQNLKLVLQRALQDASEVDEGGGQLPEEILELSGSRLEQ
T3 sequence (Q96LA9 whole entry): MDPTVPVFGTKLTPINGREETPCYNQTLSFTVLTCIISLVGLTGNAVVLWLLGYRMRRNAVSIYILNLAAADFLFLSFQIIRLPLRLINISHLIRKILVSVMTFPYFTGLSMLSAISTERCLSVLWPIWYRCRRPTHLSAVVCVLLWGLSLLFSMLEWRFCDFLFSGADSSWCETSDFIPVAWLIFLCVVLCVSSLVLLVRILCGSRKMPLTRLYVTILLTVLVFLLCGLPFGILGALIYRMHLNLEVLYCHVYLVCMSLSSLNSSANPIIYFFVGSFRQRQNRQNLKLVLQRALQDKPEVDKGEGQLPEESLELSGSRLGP

COc1cc2c3cc1Oc1c(OC)c(OC)cc4c1[C@@H](Cc1ccc(O)c(c1)Oc1ccc(cc1)C[C@@H]3N(C)CC2)N(C)CC4 [berbamine]
activation of MrgprX1 by the compound itself ([1]; 30 μM berbamine (Figure S1)): did not activate MrgprX1 by itself
mode of inhibition of the activation of MrgprX1 by CQ ([1]; 30 μM berbamine, CQ dose response (Figure S3)): competitive inhibitory effect
inhibition of MrgprX1 activation by BAM8-22 ([1]; 10 min pretreatment, 500 nM BAM8-22 (Figure S2)): did not potently inhibit
inhibition at 30 µM ([1]; HEK-293T, 30 μM test compound for 10 min, then 300 μM CQ, read-out: inhibition of the CQ-induced activation of MrgprX1 (screening)): > 90%
IC50 ([1]; pretreated 10 min prior to 300 μM CQ, read-out: IC50 of inhibition of CQ-induced MrgprX1 activation): 1600 nM
IC50 [2]: 2900 nM
effect on DCA-induced activation of MrgprX4 [3]: did not alter
